The source of these data is PubChem BioAssay (NCI).

Experiment in all cases: NCI anticancer screen, dose series, 48 h
The subject of test [1] is UACC-257 melanoma.
Test [2] has as its system SK-MEL-5 melanoma.
The subject of test [3] is SK-MEL-2 melanoma.
Test [4] has as its system MOLT-4 leukemia.
Test [5] relates to UACC-62 melanoma.
The test system of test [6] is HOP-62 NSCLC.
The subject of test [7] is NCI-H226 lung.
Test [8] relates to 786-0 renal.
Test [9] has as its system HL-60(TB) leukemia.
The test system of test [10] is HOP-92 NSCLC.

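Method: 48-hour compound exposure of cells in 96-well plates, five concentrations, linear interpolation of endpoints. GI50 is the concentration that inhibits growth by half. TGI denotes the concentration required for complete inhibition of growth.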

With `COc1ccc2c(c1)[nH]c(=O)c1c3cc(C)c(C)cc3cn21`, the GI50 in test [1] is 12.8 µM; in [2] it was less than 0.0158 µM; in [3] it was less than 0.0208 µM; in test [4], less than 0.0176 µM; in [5], less than 0.0204 µM; in test [6] it was less than 0.0185 µM. In addition, the GI50 is 0.389 µM in [7], less than 0.0233 µM in [8], less than 0.01 µM in [9] and 0.485 µM in test [10]. In addition, the TGI in [1] stood at 26.4 µM; in test [2] it was 0.0763 µM; in [3] it was 6.19 µM; in test [4], 0.281 µM; in test [5], 5.32 µM; in test [6] it was 1.9 µM. Further, the TGI in test [7] is 21.7 µM; in test [8], 1.6 µM; in test [9], less than 0.013 µM; in test [10], 2.32 µM.

As for `Cc1ncc(CN=Cc2ccc(Cl)cc2)c(N)n1`, the TGI in [1], in test [2], in [3], in test [4], in test [5] and in [6] was greater than 100 µM in each case. For the same compound, the TGI in test [7], in test [8], in [9] and in [10] was greater than 100 µM throughout.

On to `CCOC(=O)c1c2c(n3ccc(NC(=O)CCN4CCCC4)cc13)C(=O)c1ncccc1C2=O`, for which the GI50 in test [1] was 13.8 µM; in test [2] it was 15.1 µM; in [3], 18.5 µM; in test [4] it was 1.52 µM; in test [5], 1.39 µM; in test [6] it was 1.08 µM. Further, the GI50 in test [7] is 19 µM; in [8], 0.214 µM; in [9] it was 1.07 µM; in test [10] it was 11.8 µM. For the same compound, the TGI in test [1] was found to be 33.9 µM; in test [2], 35 µM; in [3] it was 39.3 µM; in test [4] it was 4.81 µM; in [5], 3.22 µM; in test [6], 3.11 µM. For the same compound, the TGI amounted to 45.1 µM in test [7], 1.69 µM in test [8], 3.32 µM in test [9] and 27.5 µM in test [10].

For `O=C(CN1CCN(c2ncccn2)CC1)Nc1ccc(Cl)cc1C(=O)c1ccccc1Cl`, the GI50 in test [1] was greater than 100 µM; in [2], 52.4 µM; in test [3], greater than 100 µM; in test [4], 21.9 µM; in test [5] it was 92.8 µM; in test [6], 13.2 µM. Further, the GI50 in [7] is greater than 100 µM; in test [8] it was 62 µM; in [9] it was 25.3 µM; in test [10] it was 5.73 µM. Moreover, the TGI is greater than 100 µM in [1]; greater than 100 µM in [2]; greater than 100 µM in [3]; greater than 100 µM in test [4]; greater than 100 µM in test [5]; 57.5 µM in test [6]. For the same compound, the TGI in test [7] is greater than 100 µM; in test [8] it was greater than 100 µM; in [9], greater than 100 µM; in test [10], 75.1 µM.

Turning to `COc1cc(O)c([C@@H]2C[C@H](CCc3ccc(O)cc3)O[C@H](c3ccc(O)cc3)C2)c(O)c1C(=O)/C=C/c1ccc(O)cc1`, the GI50 was 3.82 µM in test [1]; 2.11 µM in test [2]; 2.38 µM in [3]; 1.44 µM in test [4]; 2.38 µM in test [5]; 2.77 µM in [6]. The GI50 is 7.04 µM in test [7], 2.28 µM in test [8], 2.13 µM in test [9] and 2.2 µM in test [10]. Besides, the TGI in test [1] was determined as 13.2 µM; in test [2], 6.05 µM; in test [3], 6.86 µM; in [4] it was 4.24 µM; in test [5], 5.92 µM; in test [6] it was 6.02 µM. The TGI amounted to 21.5 µM in [7], 4.97 µM in test [8], 5.2 µM in test [9] and 4.96 µM in test [10].

For the compound `N=C1C(c2nc(-c3ccc(Br)cc3)cs2)=C(O)CN1Cc1cccnc1`, the GI50 in test [1] was 27.8 µM; in test [2], 4.35 µM; in test [3], 11.2 µM; in test [4] it was 4.39 µM; in [5] it was 6.92 µM; in [6], 17.1 µM. Besides, the GI50 is 11.2 µM in test [7], 15.3 µM in test [8], 3.42 µM in [9] and 22.2 µM in test [10]. For the same compound, the TGI was greater than 100 µM in [1]; 32.5 µM in test [2]; 80.5 µM in test [3]; 42.7 µM in test [4]; 30.6 µM in test [5]; greater than 100 µM in [6]. Further, the TGI in test [7] was determined as 33.3 µM; in [8] it was 34.3 µM; in test [9] it was 20.2 µM; in test [10] it was 84.1 µM.

`COc1cc(/C(C#N)=C/c2ccc3c(c2OC)OCO3)cc2c1OCO2`: the GI50 in test [1] was 0.794 µM; in test [2], 0.0546 µM; in test [3] it was 0.0461 µM; in [4], 0.111 µM; in [5], 0.0531 µM; in test [6] it was 0.138 µM. In addition, the GI50 is 0.603 µM in test [7], 0.2 µM in test [8], 0.0314 µM in test [9] and 0.211 µM in [10]. Besides, the TGI is greater than 100 µM in [1]; greater than 46.4 µM in test [2]; 6.46 µM in [3]; 19.9 µM in test [4]; 22.3 µM in test [5]; 14.3 µM in test [6]. Further, the TGI in [7] is 36.4 µM; in test [8], 21.5 µM; in [9] it was 0.922 µM; in [10], 15.7 µM.

Take `CCOC(=O)[C@@]1(C)C=C2O[C@@H]3OC4(CCCCC4)O[C@@H]3C2=C2C(O)=CC=C(O)[C@]21C(=O)OC`: the TGI in [1], in test [2], in [3], in [4], in [5] and in [6] was greater than 68 µM throughout. The TGI in test [7] is greater than 68 µM; in test [8], greater than 68 µM; in test [9], greater than 68 µM; in test [10], 33.8 µM.
